Source: patent EP1561465A2, “Methods of use of fluoroquinolone compounds against bacteria” (LG Life Sciences, Ltd., priority 1999, dated 2001)
Converted amounts (≈) assume the structure as drawn. “And” between values parts separate entries of the source, which are not always exact repeats. Equal values may be shown once. Read-outs that look alike come from different tables or passages of the source.

Key:
Type in all cases: cell-based
Salmonella spp. [1] = assay: MIC by agar dilution (NCCLS M7-A4), 288 enteropathogenic isolates, gemifloxacin and 15 other antimicrobials; settings: read-out: MIC
Salmonella spp. [2] = assay: MIC by NCCLS broth microdilution, 1100 Japanese clinical isolates 1997-1998; settings: Salmonella spp. (n=29)
Staphylococcus aureus [3] = assay: MIC by agar dilution (NCCLS), 411 isolates Buenos Aires 1998-99; settings: for MIC90: Staphylococcus aureus
Staphylococcus aureus [4] = assay: MIC by NCCLS broth microdilution, 1100 Japanese clinical isolates 1997-1998; settings: for MIC50 / MIC90 / MIC: Staphylococcus aureus; for MIC: Staphylococcus aureus quinolone resistant
[5] = system: Mycobacterium tuberculosis (MTB); assay: MIC by proportions method (NCCLS M24-T, 1995), 82 MTB strains; settings: compared with the other quinolones
Escherichia coli = assay: MIC by agar dilution (NCCLS), 322 nosocomial Gram negative isolates, Athens 1998; settings: n = 57 isolates
P. aeruginosa = assay: MIC by two-fold serial agar dilution, quinolone-resistant strains; settings: Pseudomonas aeruginosa
Staphylococcus aureus [6] = assay: MIC by agar macrodilution (NCCLS), 373 Gram positive isolates, Athens 1998; settings: Methicillin-susceptible Staphylococcus aureus (n = 85)
Proteus vulgaris = assay: MIC by NCCLS broth microdilution, 1100 Japanese clinical isolates 1997-1998
Enterococcus faecium = assay: MIC by agar macrodilution (NCCLS), 373 Gram positive isolates, Athens 1998
[7] = system: Gram negative anaerobic pathogens and facultative anaerobic pathogens; assay: MIC by agar dilution, Brucella HK agar with 5% laked sheep blood, anaerobic reference strains
Enterococcus faecalis = assay: MIC by agar dilution (NCCLS), 411 isolates Buenos Aires 1998-99; settings: Enterococcus faecalis (n = 48)
Klebsiella pneumoniae [8] = assay: MIC by agar dilution (NCCLS), 322 nosocomial Gram negative isolates, Athens 1998; settings: n = 56 isolates
Proteus mirabilis = assay: MIC by NCCLS broth microdilution, 1100 Japanese clinical isolates 1997-1998
Hafnia alvei = assay: MIC by agar dilution (NCCLS M7-A4), 288 enteropathogenic isolates, eight quinolones; settings: Hafnia alvei (n = 32)
Klebsiella pneumoniae [9] = assay: MIC by NCCLS broth microdilution, 1100 Japanese clinical isolates 1997-1998; settings: Klebsiella pneumoniae (n=35)
Pseudomonas aeruginosa = assay: MIC by agar dilution (NCCLS), 322 nosocomial Gram negative isolates, Athens 1998; settings: n = 57 isolates
Enterobacter cloacae = assay: MIC by NCCLS broth microdilution, 1100 Japanese clinical isolates 1997-1998; settings: Enterobacter cloacae (n=40)
[10] = S. aureus, Methicillin resistant (n = 14)
[11] = S. aureus, Methicillin susceptible (n = 66)
[12] = Staphylococcus aureus oxacillin resistant (n=57)
[13] = Staphylococcus aureus oxacillin susceptible (n=41)

SMILES: CO/N=C1\CN(c2nc3c(cc2F)c(=O)c(C(=O)O)cn3C2CC2)CC1CN (racemic) [Gemifloxacin, (R,S)-7-(3-aminomethyl-4-methoxyiminopyrrolidin-1-yl)-1-cyclopropyl-6-fluoro-4-oxo-1,4-dihydro-1,8-naphthyridine-3-carboxylic acid]
- MIC (Salmonella spp. [1]; S. hadar(2), isolates with MICs for ciprofloxacin ≥[…]): 0.25 µg/mL (≈ 0.642 µM)
- MIC (Salmonella spp. [1]; S. newport(1), isolate with MIC for ciprofloxacin ≥[…]): 0.25 µg/mL (≈ 0.642 µM)
- MIC (Salmonella spp. [1]; S. virchow(2), isolates with MICs for ciprofloxacin ≥[…]): 0.12 µg/mL (≈ 0.308 µM)
- MIC (Salmonella spp. [1]; Salmonella, S. tshiongwe(1), isolate with MIC for ciprofloxacin ≥[…]): 0.25 µg/mL (≈ 0.642 µM)
- MIC50 (Salmonella spp. [2]): 0.032 µg/mL (≈ 0.0822 µM)
- MIC90 (Salmonella spp. [2]): 0.032 µg/mL (≈ 0.0822 µM)
- Resistance (%) (Staphylococcus aureus [3]; [10]): 0%
- Resistance (%) (Staphylococcus aureus [3]; [11]): 0%
- MIC Range (Staphylococcus aureus [3]; Staphylococcus aureus (n = 80)): ≤0.004 to 2 µg/mL
- MIC90 (Staphylococcus aureus [3]; [10]): 2 µg/mL (≈ 5.14 µM)
- MIC90 (Staphylococcus aureus [3]; [11]): 0.03 µg/mL (≈ 0.077 µM)
- MIC90 (Staphylococcus aureus [3]; Staphylococcus aureus (n = 80)): 1 µg/mL (≈ 2.57 µM)
- MIC Range (Staphylococcus aureus [4]; [12]): ≤0.008 to 64 µg/mL
- MIC Range (Staphylococcus aureus [4]; [13]): ≤0.008 to 1 µg/mL
- MIC50 (Staphylococcus aureus [4]; [12]): 1 µg/mL (≈ 2.57 µM)
- MIC90 (Staphylococcus aureus [4]; [12]): 32 µg/mL (≈ 82.2 µM)
- MIC50 (Staphylococcus aureus [4]; [13]): 0.063 µg/mL (≈ 0.162 µM)
- MIC90 (Staphylococcus aureus [4]; [13]): 0.063 µg/mL (≈ 0.162 µM)
- MIC (Staphylococcus aureus [4]; strain TMS1* (spontaneous mutant resistant to ciprofloxacin)): 0.032 µg/mL (≈ 0.0822 µM)
- MIC (Staphylococcus aureus [4]; strain TMS2* (spontaneous mutant resistant to ciprofloxacin)): 1 µg/mL (≈ 2.57 µM)
- MIC (Staphylococcus aureus [4]; strain TMS3, read-out: MIC): 32 µg/mL (≈ 82.2 µM)
- MIC (Staphylococcus aureus [4]; strain TMS4, read-out: MIC): 4 µg/mL (≈ 10.3 µM)
- MIC (Staphylococcus aureus [4]; strain TMS5, read-out: MIC): 2 µg/mL (≈ 5.14 µM)
- MIC (Staphylococcus aureus [4]; strain TMS6, read-out: MIC): 0.25 µg/mL (≈ 0.642 µM)
- in vitro activity against MTB [5]: lower in vitro activity
- MIC50 (Escherichia coli; Escherichia coli): ≤ 0.03 µg/mL
- MIC90 (Escherichia coli; Escherichia coli): 0.25 µg/mL (≈ 0.642 µM)
- MIC Range (Escherichia coli): ≤0.03 to 64 µg/mL
- MIC (P. aeruginosa): 2 µg/mL (≈ 5.14 µM)
- MIC Range (Staphylococcus aureus [6]): ≤0.03 to 4 µg/mL
- MIC50 (Staphylococcus aureus [6]; read-out: MIC50): 0.06 µg/mL (≈ 0.154 µM)
- MIC90 (Staphylococcus aureus [6]; read-out: MIC90): 0.125 µg/mL (≈ 0.321 µM)
- MIC50 (Proteus vulgaris; Proteus vulgaris): 0.125 µg/mL (≈ 0.321 µM)
- MIC Range (Proteus vulgaris; Proteus vulgaris (n=25)): 0.063 to 1 µg/mL
- MIC90 (Proteus vulgaris; Proteus vulgaris (n=25), read-out: MIC90): 0.25 µg/mL (≈ 0.642 µM)
- MIC distribution (µg/ml) 0.03 (Enterococcus faecium): 0
- MIC distribution (µg/ml) 0.06 (Enterococcus faecium): 1
- MIC distribution (µg/ml) 0.125 (Enterococcus faecium): 4
- MIC distribution (µg/ml) 0.25 (Enterococcus faecium): 0
- MIC distribution (µg/ml) 0.5 (Enterococcus faecium): 4
- MIC distribution (µg/ml) 1 (Enterococcus faecium): 0
- MIC distribution (µg/ml) 2 (Enterococcus faecium): 0
- MIC distribution (µg/ml) 4 (Enterococcus faecium): 2
- MIC distribution (µg/ml) 16 (Enterococcus faecium): 3
- MIC distribution (µg/ml) ≤0.015 (Enterococcus faecium): 0
- MIC distribution (µg/ml) ≥32 (Enterococcus faecium): 0
- MIC50 (Enterococcus faecium; Enterococcus faecium, n = 14 isolates, read-out: MIC50): 0.25 µg/mL (≈ 0.642 µM)
- MIC90 (Enterococcus faecium; Enterococcus faecium, n = 14 isolates, read-out: MIC90): 16 µg/mL (≈ 41.1 µM)
- MIC Range (Enterococcus faecium; n = 14 isolates): 0.06 to 16 µg/mL
- MIC distribution (µg/ml) 8 (Enterococcus faecium; number of isolates at MIC 8 µg/ml, n = 14): 8
- MIC [7]: 1 µg/mL and 0.125 µg/mL
- MIC ([7]; Bacteroides eggerthii, ATCC27754, Bacteroides eggerthii ATCC27754, read-out: MIC): 4 µg/mL (≈ 10.3 µM)
- MIC ([7]; Bacteroides fragilis, ATCC25285, Bacteroides fragilis ATCC25285, read-out: MIC): 0.5 µg/mL (≈ 1.28 µM)
- MIC ([7]; Bacteroides fragilis, Bacteroides fragilis GA15562, read-out: MIC): 0.25 µg/mL (≈ 0.642 µM)
- MIC ([7]; Bacteroides fragilis, Bacteroides fragilis GA-I0558, read-out: MIC): 0.5 µg/mL (≈ 1.28 µM)
- MIC ([7]; Bacteroides fragilis, Bacteroides fragilis GA-I7955, read-out: MIC): 2 µg/mL (≈ 5.14 µM)
- MIC ([7]; Bacteroides fragilis, Bacteroides fragilis GAI10150, read-out: MIC): 0.5 µg/mL (≈ 1.28 µM)
- MIC ([7]; Bacteroides fragilis, Bacteroides fragilis GAI30079, read-out: MIC): 8 µg/mL (≈ 20.5 µM)
- MIC ([7]; Bacteroides fragilis, Bacteroides fragilis GAI30144, read-out: MIC): 2 µg/mL (≈ 5.14 µM)
- MIC ([7]; Bacteroides fragilis, NCTC10581, Bacteroides fragilis NCTC10581, read-out: MIC): 0.5 µg/mL (≈ 1.28 µM)
- MIC ([7]; Bacteroides ovatus, ATCC8483, Bacteroides ovatus ATCC8483, read-out: MIC): 1 µg/mL (≈ 2.57 µM)
- MIC ([7]; Bacteroides thetaiotaomicron, ATCC29741, Bacteroides thetaiotaomicron ATCC29741, read-out: MIC): 2 µg/mL (≈ 5.14 µM)
- MIC ([7]; Bacteroides uniformis, ATCC8492, Bacteroides uniformis ATCC8492, read-out: MIC): 1 µg/mL (≈ 2.57 µM)
- MIC ([7]; Campylobacter gracilis, JCM8538, Campylobacter gracilis JCM8538, read-out: MIC): ≤ 0.03 µg/mL
- MIC ([7]; Campylobacter ureolyticus, NCTC10941, Bacteroides ureolyticus NCTC10941, read-out: MIC): ≤ 0.03 µg/mL
- MIC ([7]; Capnocytophaga ochracea, Capnocytophaga ochracea GAI5586, read-out: MIC): ≤ 0.03 µg/mL
- MIC ([7]; Desullomonas pigra DSM749, read-out: MIC): 0.06 µg/mL (≈ 0.154 µM)
- MIC ([7]; Fusobacterium necrophorum, ATCC25286, Fusobacterium necrophorum ATCC25286, read-out: MIC): 0.25 µg/mL (≈ 0.642 µM)
- MIC ([7]; Fusobacterium nucleatum, ATCC25586): 0.125 µg/mL (≈ 0.321 µM)
- MIC ([7]; Fusobacterium varium, ATCC8501, Fusobacterium varium ATCC8501, read-out: MIC): 0.5 µg/mL (≈ 1.28 µM)
- MIC ([7]; Hoylesella oralis, ATCC33269, Prevotella oralis ATCC33269, read-out: MIC): 2 µg/mL (≈ 5.14 µM)
- MIC ([7]; Parabacteroides distasonis, ATCC8503, Bacteroides distasonis ATCC8503, read-out: MIC): 0.25 µg/mL (≈ 0.642 µM)
- MIC ([7]; Phocaeicola vulgatus, ATCC8482, Bacteroides vulgatus ATCC8482, read-out: MIC): 0.25 µg/mL (≈ 0.642 µM)
- MIC ([7]; Porphylomonas gingivalis ATCC33277, read-out: MIC): 0.06 µg/mL (≈ 0.154 µM)
- MIC ([7]; Porphyromonas asaccharolytica, ATCC25260, Porphyromonas asaccharolytica ATCC25260, read-out: MIC): 0.06 µg/mL (≈ 0.154 µM)
- MIC ([7]; Prevotella bivia, ATCC29303, Prevotella bivia ATCC29303, read-out: MIC): 16 µg/mL (≈ 41.1 µM)
- MIC ([7]; Prevotella buccaeATCC33574, read-out: MIC): 2 µg/mL (≈ 5.14 µM)
- MIC ([7]; Prevotella corporis, Prevotella corporis GAI91000, read-out: MIC): 1 µg/mL (≈ 2.57 µM)
- MIC ([7]; Prevotella heparinolytica, ATCC35895): 0.125 µg/mL (≈ 0.321 µM)
- MIC ([7]; Prevotella melaninogenica, Prevotella melaninogenica GAI5490, read-out: MIC): 1 µg/mL (≈ 2.57 µM)
- MIC ([7]; Segatella oris, ATCC33573, Prevotella oris ATCC33573, read-out: MIC): 0.5 µg/mL (≈ 1.28 µM)
- MIC ([7]; Sutterella wadsworthensis, ATCC51579, Sutterella wadsworthensis ATCC51579, read-out: MIC): 2 µg/mL (≈ 5.14 µM)
- MIC ([7]; Veillonella dispar, ATCC17748, Veillonella dispar ATCC17748, read-out: MIC): ≤ 0.03 µg/mL
- MIC ([7]; Veillonella parvula, ATCC10790, Veillonella parvula ATCC10790, read-out: MIC): 0.06 µg/mL (≈ 0.154 µM)
- MIC90 (Enterococcus faecalis): 2 µg/mL (≈ 5.14 µM)
- MIC Range (Enterococcus faecalis): 0.008 to 8 µg/mL
- MIC50 (Klebsiella pneumoniae [8]; Klebsiella pneumoniae): 0.06 µg/mL (≈ 0.154 µM)
- MIC90 (Klebsiella pneumoniae [8]; Klebsiella pneumoniae): 0.5 µg/mL (≈ 1.28 µM)
- MIC Range (Klebsiella pneumoniae [8]): ≤0.03 to 4 µg/mL
- MIC50 (Proteus mirabilis; Proteus mirabilis): 0.125 µg/mL (≈ 0.321 µM)
- MIC Range (Proteus mirabilis; Proteus mirabilis (n=30)): 0.063 to 16 µg/mL
- MIC90 (Proteus mirabilis; Proteus mirabilis (n=30), read-out: MIC90): 0.25 µg/mL (≈ 0.642 µM)
- % Susceptible (Hafnia alvei): 100%
- MIC50 (Hafnia alvei): 0.03 µg/mL (≈ 0.077 µM)
- MIC90 (Hafnia alvei): 0.03 µg/mL (≈ 0.077 µM)
- MIC Range (Hafnia alvei): ≤0.015 to 0.06 µg/mL
- MIC50 (Klebsiella pneumoniae [9]): 0.032 µg/mL (≈ 0.0822 µM)
- MIC Range (Klebsiella pneumoniae [9]): 0.016 to 1 µg/mL
- MIC90 (Klebsiella pneumoniae [9]; read-out: MIC90): 0.063 µg/mL (≈ 0.162 µM)
- MIC50 (Pseudomonas aeruginosa): 1 µg/mL (≈ 2.57 µM)
- MIC90 (Pseudomonas aeruginosa): > 64 µg/mL
- MIC50 (Enterobacter cloacae): 0.032 µg/mL (≈ 0.0822 µM)
- MIC90 (Enterobacter cloacae): 1 µg/mL (≈ 2.57 µM)
- MIC Range (Enterobacter cloacae): ≤0.008 to 2 µg/mL
